Test results reported in ChEMBL document CHEMBL3352029, “Ring fusion strategy for the synthesis of anthra[2,3-d]oxazole-2-thione-5,10-dione homologues as DNA topoisomerase inhibitors and as antitumor agents” (Eur J Med Chem, 2014).

Legend:
SF-268 = assay: Cytotoxicity against human SF268 cells assessed as cell growth level at 10 uM after 48 hrs by sulforhodamine B assay; format: functional
LOX IMVI = assay: Cytotoxicity against human LOXIMVI cells assessed as cell growth level at 10 uM after 48 hrs by sulforhodamine B assay; format: functional
SW-620 = assay: Cytotoxicity against human SW620 cells assessed as cell growth level at 10 uM after 48 hrs by sulforhodamine B assay; format: functional
SR = assay: Cytotoxicity against human SR cells assessed as cell growth level at 10 uM after 48 hrs by sulforhodamine B assay; format: functional
RPMI-8226 = assay: Cytotoxicity against human RPMI8226 cells assessed as cell growth level at 10 uM after 48 hrs by sulforhodamine B assay; format: functional
CAKI-1 = assay: Cytotoxicity against human CAKI-1 cells assessed as cell growth level at 10 uM after 48 hrs by sulforhodamine B assay; format: functional
HL-60(TB) = assay: Cytotoxicity against human HL-60(TB) cells assessed as cell growth level at 10 uM after 48 hrs by sulforhodamine B assay; format: functional
[1] = Cytotoxicity against human OVCAR5 cells assessed as cell growth level at 10 uM after 48 hrs by sulforhodamine B assay; format: functional, OVCAR-5
T47D = assay: Cytotoxicity against human T47D cells assessed as cell growth level at 10 uM after 48 hrs by sulforhodamine B assay; format: functional
NCI-H460 = assay: Cytotoxicity against human NCI-H460 cells assessed as cell growth level at 10 uM after 48 hrs by sulforhodamine B assay; format: functional
IGROV-1 = assay: Cytotoxicity against human IGROV1 cells assessed as cell growth level at 10 uM after 48 hrs by sulforhodamine B assay; format: functional
[2] = Cytotoxicity against human PC3 cells assessed as inhibition of cell growth after 48 hrs by sulforhodamine B assay; format: functional, cell-based; conditions: PC-3, 48 h
TK-10 = assay: Cytotoxicity against human TK10 cells assessed as cell growth level at 10 uM after 48 hrs by sulforhodamine B assay; format: functional
HOP-92 = assay: Cytotoxicity against human HOP92 cells assessed as cell growth level at 10 uM after 48 hrs by sulforhodamine B assay; format: functional
A549 = assay: Cytotoxicity against human A549/ATCC cells assessed as cell growth level at 10 uM after 48 hrs by sulforhodamine B assay; format: functional
Malme-3M = assay: Cytotoxicity against human MALME-3M cells assessed as cell growth level at 10 uM after 48 hrs by sulforhodamine B assay; format: functional
NCI-H23 = assay: Cytotoxicity against human NCI-H23 cells assessed as cell growth level at 10 uM after 48 hrs by sulforhodamine B assay; format: functional
[3] = Cytotoxicity against human SKOV3 cells assessed as cell growth level at 10 uM after 48 hrs by sulforhodamine B assay; format: functional, SK-OV-3
MOLT-4 = assay: Cytotoxicity against human MOLT4 cells assessed as cell growth level at 10 uM after 48 hrs by sulforhodamine B assay; format: functional
ACHN = assay: Cytotoxicity against human ACHN cells assessed as cell growth level at 10 uM after 48 hrs by sulforhodamine B assay; format: functional
[4] = Cytotoxicity against human UACC257 cells assessed as cell growth level at 10 uM after 48 hrs by sulforhodamine B assay; format: functional, UACC-257
MDA-MB-231 = assay: Cytotoxicity against human MDA-MB-231 cells assessed as cell growth level at 10 uM after 48 hrs by sulforhodamine B assay; format: functional
NCI-H226 = assay: Cytotoxicity against human NCI-H226 cells assessed as cell growth level at 10 uM after 48 hrs by sulforhodamine B assay; format: functional
K562 = assay: Cytotoxicity against human K562 cells assessed as cell growth level at 10 uM after 48 hrs by sulforhodamine B assay; format: functional
NCI-H322M = assay: Cytotoxicity against human NCI-H322M cells assessed as cell growth level at 10 uM after 48 hrs by sulforhodamine B assay; format: functional
[5] = Cytotoxicity against human OVCAR8 cells assessed as cell growth level at 10 uM after 48 hrs by sulforhodamine B assay; format: functional, OVCAR-8
RXF 393 = assay: Cytotoxicity against human RXF393 cells assessed as cell growth level at 10 uM after 48 hrs by sulforhodamine B assay; format: functional
HCC 2998 = assay: Cytotoxicity against human HCC2998 cells assessed as cell growth level at 10 uM after 48 hrs by sulforhodamine B assay; format: functional
SNB-75 = assay: Cytotoxicity against human SNB75 cells assessed as cell growth level at 10 uM after 48 hrs by sulforhodamine B assay; format: functional
U-251 = assay: Cytotoxicity against human U251 cells assessed as cell growth level at 10 uM after 48 hrs by sulforhodamine B assay; format: functional
SF-295 = assay: Cytotoxicity against human SF295 cells assessed as cell growth level at 10 uM after 48 hrs by sulforhodamine B assay; format: functional
SNB-19 = assay: Cytotoxicity against human SNB19 cells assessed as cell growth level at 10 uM after 48 hrs by sulforhodamine B assay; format: functional
SK-MEL-5 = assay: Cytotoxicity against human SK-MEL-5 cells assessed as cell growth level at 10 uM after 48 hrs by sulforhodamine B assay; format: functional
[6] = Cytotoxicity against human UO31 cells assessed as cell growth level at 10 uM after 48 hrs by sulforhodamine B assay; format: functional, UO-31
[7] = Cytotoxicity against human OVCAR3 cells assessed as cell growth level at 10 uM after 48 hrs by sulforhodamine B assay; format: functional, OVCAR-3
786-0 = assay: Cytotoxicity against human 786-0 cells assessed as cell growth level at 10 uM after 48 hrs by sulforhodamine B assay; format: functional
M14 = assay: Cytotoxicity against human M14 cells assessed as cell growth level at 10 uM after 48 hrs by sulforhodamine B assay; format: functional
DU-145 = assay: Cytotoxicity against human DU145 cells assessed as cell growth level at 10 uM after 48 hrs by sulforhodamine B assay; format: functional
MDA-MB-435 = assay: Cytotoxicity against human MDA-MB-435 cells assessed as cell growth level at 10 uM after 48 hrs by sulforhodamine B assay; format: functional
SN12C = assay: Cytotoxicity against human SN12C cells assessed as cell growth level at 10 uM after 48 hrs by sulforhodamine B assay; format: functional
CCRF-CEM = assay: Cytotoxicity against human CCRF-CEM cells assessed as cell growth level at 10 uM after 48 hrs by sulforhodamine B assay; format: functional
SF-539 = assay: Cytotoxicity against human SF539 cells assessed as cell growth level at 10 uM after 48 hrs by sulforhodamine B assay; format: functional
MCF7 = assay: Cytotoxicity against human MCF7 cells assessed as cell growth level at 10 uM after 48 hrs by sulforhodamine B assay; format: functional
SK-MEL-28 = assay: Cytotoxicity against human SK-MEL-28 cells assessed as cell growth level at 10 uM after 48 hrs by sulforhodamine B assay; format: functional
MDA-MB-468 = assay: Cytotoxicity against human MDA-MB-468 cells assessed as cell growth level at 10 uM after 48 hrs by sulforhodamine B assay; format: functional
BT-549 = assay: Cytotoxicity against human BT549 cells assessed as cell growth level at 10 uM after 48 hrs by sulforhodamine B assay; format: functional

CCSc1nc2cc3c(cc2o1)C(=O)c1ccccc1C3=O
Activity (SF-268): 102.22% | Activity (LOX IMVI): 91% | Activity (SW-620): 91.86% | Activity (SR): 92.53% | Activity (RPMI-8226): 91.04% | Activity (CAKI-1): 93.49% | Activity (HL-60(TB)): 96.05% | Activity [1]: 104.57% | Activity (T47D): 96.02% | Activity (NCI-H460): 100.33% | Activity (IGROV-1): 79.05% | IC50 [2]: > 30 µM | Activity (TK-10): 100.92% | Activity (HOP-92): 72.67% | Activity (A549): 96.49% | Activity (Malme-3M): 91.75% | Activity (NCI-H23): 90.76% | Activity [3]: 90.67% | Activity (MOLT-4): 101.76% | Activity (ACHN): 90.86% | Activity [4]: 92.45% | Activity (MDA-MB-231): 90.66% | Activity (NCI-H226): 82.45% | Activity (K562): 96.26% | Activity (NCI-H322M): 77.88% | Activity [5]: 92.46% | Activity (RXF 393): 101% | Activity (HCC 2998): 101.65% | Activity (SNB-75): 96.42% | Activity (U-251): 94% | Activity (SF-295): 92.06% | Activity (SNB-19): 99.9% | Activity (SK-MEL-5): 100.35% | Activity [6]: 57.94% | Activity [7]: 101% | Activity (786-0): 99.33% | Activity (M14): 98.8% | Activity (DU-145): 107.71% | Activity (MDA-MB-435): 101.49% | Activity (SN12C): 98.57% | Activity (CCRF-CEM): 90.48% | Activity (SF-539): 94.61% | Activity (MCF7): 81.27% | Activity (SK-MEL-28): 92.36% | Activity (MDA-MB-468): 88.73% | Activity (BT-549): 114.59%

CN(C)CCCSc1nc2cc3c(cc2o1)C(=O)c1ccccc1C3=O
Activity (SF-268): 102.39% | Activity (LOX IMVI): 76.64% | Activity (SW-620): 69.11% | Activity (SR): 28.03% | Activity (RPMI-8226): 84.91% | Activity (CAKI-1): 73.88% | Activity (HL-60(TB)): 75.05% | Activity [1]: 86.43% | Activity (T47D): 82.2% | Activity (NCI-H460): 60.58% | Activity (IGROV-1): 71.71% | IC50 [2]: 16 µM | Activity (TK-10): 73.42% | Activity (HOP-92): 34.36% | Activity (A549): 54.13% | Activity (Malme-3M): 101.35% | Activity (NCI-H23): 97.69% | Activity [3]: 77.71% | Activity (MOLT-4): 13.77% | Activity (ACHN): 57.3% | Activity [4]: 99.82% | Activity (MDA-MB-231): 71.49% | Activity (NCI-H226): 100.17% | Activity (K562): 51.17% | Activity (NCI-H322M): 85.16% | Activity [5]: 72.26% | Activity (RXF 393): 83.05% | Activity (HCC 2998): 100.1% | Activity (SNB-75): 88.28% | Activity (U-251): 87.74% | Activity (SF-295): 92.69% | Activity (SNB-19): 90.07% | Activity (SK-MEL-5): 90.17% | Activity [6]: 59.82% | Activity [7]: 100.68% | Activity (786-0): 86.09% | Activity (M14): 101.41% | Activity (DU-145): 53.81% | Activity (MDA-MB-435): 85.47% | Activity (SN12C): 88.52% | Activity (CCRF-CEM): 55.33% | Activity (SF-539): 87.3% | Activity (MCF7): 52.24% | Activity (SK-MEL-28): 108.23% | Activity (MDA-MB-468): 88.6% | Activity (BT-549): 107.23%

O=C1c2ccccc2C(=O)c2cc3oc(SCc4ccc(F)cc4)nc3cc21
Activity (SF-268): 103.49% | Activity (LOX IMVI): 94.24% | Activity (SW-620): 100.32% | Activity (SR): 85.14% | Activity (RPMI-8226): 96.5% | Activity (CAKI-1): 90.54% | Activity (HL-60(TB)): 95.74% | Activity [1]: 94.94% | Activity (T47D): 102.69% | Activity (NCI-H460): 84.05% | Activity (IGROV-1): 87.04% | IC50 [2]: > 30 µM | Activity (TK-10): 92.13% | Activity (HOP-92): 74.13% | Activity (A549): 83.66% | Activity (Malme-3M): 89.8% | Activity (NCI-H23): 90.64% | Activity [3]: 86.24% | Activity (MOLT-4): 90.09% | Activity (ACHN): 82.53% | Activity [4]: 98.94% | Activity (MDA-MB-231): 103.32% | Activity (NCI-H226): 83.03% | Activity (K562): 93.54% | Activity (NCI-H322M): 85.42% | Activity [5]: 94.89% | Activity (RXF 393): 90.29% | Activity (HCC 2998): 108.69% | Activity (SNB-75): 88.45% | Activity (U-251): 96.4% | Activity (SF-295): 86.95% | Activity (SNB-19): 104.56% | Activity (SK-MEL-5): 97.58% | Activity [6]: 77.49% | Activity [7]: 115.02% | Activity (786-0): 98.08% | Activity (M14): 103.58% | Activity (DU-145): 103.51% | Activity (MDA-MB-435): 91.05% | Activity (SN12C): 92.48% | Activity (CCRF-CEM): 86.28% | Activity (SF-539): 94.71% | Activity (MCF7): 80.56% | Activity (SK-MEL-28): 98.54% | Activity (MDA-MB-468): 90.68% | Activity (BT-549): 102.4%
